Measurements from patent US5346913A, “N-iodopropargyl hydantoin compounds, compositions, preparation, and use as antimicrobial agents” (Rohm and Haas Company, priority 1992, dated 1994).
In brackets after ≈: the same amount, converted by molar mass. Read-outs that look alike come from different tables or passages of the source.

What was measured:
Staphylococcus aureus = assay: MIC, broth two-fold serial dilution test, Staphylococcus aureus (Saur); assay type: cell-based
From the text: (§1) The compounds identified with a prime (') were the non-iodo analogues of the invention compounds, i.e., the compounds of formula III or IV. All data are reported in ppm of active ingredient required to control the respective organism. The indication "No In." means that the compound had no inhibitory activity at 500 ppm which was the maximum tested, and so if the "No In." compound were active, the minimum inhibitory concentration would be above 500 ppm. The comparative tests were not run side-by-side, but were run on different days using the same methods. […] A minimum inhibitory concentration (MIC) value is obtained using a broth, two-fold serial dilution test performed as follows: […] A volume of the stock solution is dispensed into culture media to give an initial starting test concentration of the compound of 500 ppm or 250 ppm. When the test is ready to be done, each vessel in the dilution series, except the first vessel, contains an equal volume of compound free broth. The first vessel contains twice the volume of broth with the starting concentration of test compound. One half of the broth from the first vessel is transferred to the second vessel. After being mixed, one half the resulting volume is removed from the second vessel and transferred to the third vessel. […] Each vessel is then inoculated with a cell suspension of the appropriate test organism. Bacteria are grown in broth and fungi on agar […] is grown in cooling tower media for a time and at a temperature appropriate to the species being tested. At the end of the growth period, the broth is vortexed to disperse the cells. In the case of fungi, the spores are harvested by pipetting water onto the slant and dislodging the spores with a sterile loop. The cell/spore suspension is standardized by controlling incubation time, temperature, and the volume of the diluent. The suspension is then used to inoculate the vessels containing the broth compound. The vessels are then incubated at the appropriate temperature. After the incubation, the vessels are examined for growth/no growth. The MIC is defined as the lowest concentration of compound that results in complete inhibition of growth of the test organism. BACTERIA: Pseudomonas fluorescens (Ps.fl), gram negative; Pseudomonas aerugenosa (Ps.ae), gram negative; Escherichia coli (E.c), gram negative; and Staphylococcus aureus (S.a), gram positive.

Escherichia coli = assay: MIC, broth two-fold serial dilution test, Escherichia coli (Ecol); assay type: cell-based
From the text: as §1

Pseudomonas aerugenosa = assay: MIC, broth two-fold serial dilution test, Pseudomonas aerugenosa (Psae); assay type: cell-based
From the text: as §1

Aspergillus niger = assay: MIC, broth two-fold serial dilution test, Aspergillus niger (Anig); assay type: cell-based; details: TSB
From the text: as §1, with “INDUSTRIAL FUNGI: Aspergillus niger (A.n); Aureobasidium pullulans (A.p)” for “BACTERIA: Pseudomonas fluorescens (Ps.fl), gram negative; Pseudomonas aerugenosa (Ps.ae), gram negative; Escherichia coli (E.c), gram negative; and Staphylococcus aureus (S.a), gram positive.”

[1] = system: Erysiphe graminis (f. sp. tritici); assay: whole plant or invertebrate; assay type: in vivo; details: for pest or weed control at 50 ppm / pest or weed control at 200 ppm: Blumeria graminis, read-out: % Control WPM
Phytophthora infestans = assay: whole plant or invertebrate; assay type: in vivo; details: for pest or weed control at 200 ppm / pest or weed control at 50 ppm: Phytophthora infestans, in Solanum lycopersicum, 96 h; for pest or weed control at 50 ppm: read-out: % Control TLB, secondary greenhouse test (Table 5), 50 ppm
Piricularia oryzae = assay: whole plant or invertebrate; assay type: in vivo; details: Pyricularia oryzae, read-out: % Control RB
[2] = system: Pellicularia filamentosa (f. sp. sasiki); assay: whole plant or invertebrate; assay type: in vivo; details: 120 h; read-out: % Control RSB
[3] = system: Pseudoperonospora cubensis; assay: whole plant or invertebrate; assay type: in vivo; details: for pest or weed control at 200 ppm: Pseudoperonospora cubensis, in Cucumis sativus, 168 h, read-out: % Control CDM
[4] = system: Puccinia recondita (f. sp. tritici Races PKB and PLD); assay: whole plant or invertebrate; assay type: in vivo; details: for pest or weed control at 50 ppm / pest or weed control at 200 ppm: Puccinia recondita, 240 h, read-out: % Control WLR
TLB, CDM, WLR, SNW, WPM = details: in vivo
Septoria nodorum = details: in vivo
[5] = read-out: % Control TLB, greenhouse test (Table 4), 200 ppm
[6] = read-out: % Control TLB, secondary greenhouse test (Table 5), 200 ppm

Row | Structure (SMILES) | MIC (Staphylococcus aureus; M9G) [µg/mL] | MIC (Staphylococcus aureus; TSB) [µg/mL] | MIC (Escherichia coli; M9G) [µg/mL] | MIC (Escherichia coli; TSB) [µg/mL] | MIC (Pseudomonas aerugenosa; M9G) [µg/mL] | MIC (Pseudomonas aerugenosa; TSB) [µg/mL] | MIC (Aspergillus niger) [µg/mL] | further results
1 | C#CCN1C(=O)N(c2cc(Cl)cc(Cl)c2)C(=O)C1C (centres unmarked) [Compound 1', 1-(2-propynyl)-3-(3,5-dichlorophenyl)-5-methylhydantoin, reference compound] | > 500 | > 500 | > 500 | > 500 | > 500 | > 500 | > 500 | –
2 | CC1C(=O)N(c2cc(Cl)cc(Cl)c2)C(=O)N1CC#CI (centres unmarked) [Compound 1] | > 500 | > 500 | > 500 | > 500 | > 500 | > 500 | 0.5 (≈ 1.18 µM) | pest or weed control at 50 ppm [1]: 0%; pest or weed control at 200 ppm (Phytophthora infestans; [5]): 0%; pest or weed control at 50 ppm (Phytophthora infestans): 75%; pest or weed control at 200 ppm (Phytophthora infestans; [6]): 95%; pest or weed control at 50 ppm (Piricularia oryzae): 50%; pest or weed control at 200 ppm (Piricularia oryzae): 50%; pest or weed control at 50 ppm [2]: 50%; pest or weed control at 200 ppm [2]: 75%; pest or weed control at 200 ppm [3]: 90%; pest or weed control at 50 ppm [4]: 50%; pest or weed control at 200 ppm [4]: 80%
3 | CC1(C)C(=O)N(c2cc(Cl)cc(Cl)c2)C(=O)N1CC#CI [Compound 6, 1-(3-iodo-2-propynyl)-3-(3,5-dichlorophenyl)-5,5-dimethylhydantoin] | 8 (≈ 18.3 µM) | 2 (≈ 4.58 µM) | > 500 | > 500 | > 500 | > 500 | 1 (≈ 2.29 µM) | percent disease control Average (TLB, CDM, WLR, SNW, WPM): 77.6%; percent disease control WPM ([1]; in vivo): 68.0%; percent disease control TLB (Phytophthora infestans; advanced greenhouse test (Table 6), 0.25 kg a.i./ha): 70.0%; percent disease control CDM ([3]; in vivo): 100.0%; percent disease control WLR ([4]; in vivo): 82.0%; percent disease control SNW (Septoria nodorum): 68.0%
4 | O=C1CN(CC#CI)C(=O)N1c1cc(Cl)cc(Cl)c1 [Compound 7, 1-(3-iodo-2-propynyl)-3-(3,5-dichlorophenyl)hydantoin] | 16 (≈ 39.1 µM) | 8 (≈ 19.6 µM) | > 500 | > 500 | > 500 | > 500 | 1 (≈ 2.44 µM) | pest or weed control at 50 ppm [1]: 0%; pest or weed control at 200 ppm (Phytophthora infestans; [5]): 90%; pest or weed control at 50 ppm (Phytophthora infestans): 50%; pest or weed control at 200 ppm (Phytophthora infestans; [6]): 90%; pest or weed control at 50 ppm (Piricularia oryzae): 50%; pest or weed control at 200 ppm (Piricularia oryzae): 50%; pest or weed control at 200 ppm [2]: 50%; pest or weed control at 200 ppm [3]: 50%; pest or weed control at 50 ppm [4]: 50%
5 | C#CCN1C(=O)N(Cc2ccccc2)C(=O)C1(C)C [Compound 8, 3-benzyl-1-propargyl-5,5-dimethylhydantoin, reference compound] | > 500 | > 500 | > 500 | > 500 | > 500 | > 500 | > 500 | –
6 | CC1(C)C(=O)N(Cc2ccccc2)C(=O)N1CC#CI [Compound 8] | 16 (≈ 41.9 µM) | 16 (≈ 41.9 µM) | 64 (≈ 167 µM) | 125 (≈ 327 µM) | 32 (≈ 83.7 µM) | 125 (≈ 327 µM) | < 0.25 | pest or weed control at 50 ppm [1]: 0%; pest or weed control at 200 ppm [1]: 50%; pest or weed control at 50 ppm (Phytophthora infestans): 50%; pest or weed control at 200 ppm (Phytophthora infestans; [6]): 50%; pest or weed control at 50 ppm (Piricularia oryzae): 50%; pest or weed control at 200 ppm (Piricularia oryzae): 50%; pest or weed control at 50 ppm [2]: 50%; pest or weed control at 200 ppm [2]: 75%; pest or weed control at 50 ppm [4]: 80%; pest or weed control at 200 ppm [4]: 90%
7 | CCCCN1C(=O)N(CC#CI)C(C)(C)C1=O [Compound 9, 1-(3-iodo-2-propynyl)-3-n-butyl-5,5-dimethylhydantoin] | 4 (≈ 11.5 µM) | 16 (≈ 46 µM) | 16 (≈ 46 µM) | 500 (≈ 1440 µM) | 64 (≈ 184 µM) | 500 (≈ 1440 µM) | 2 (≈ 5.74 µM) | –
8 | CCCCCCCCN1C(=O)N(CC#CI)C(C)(C)C1=O [Compound 10, 1-(3-iodo-2-propynyl)-3-n-octyl-5,5-dimethylhydantoin] | 2 (≈ 4.95 µM) | 4 (≈ 9.89 µM) | 250 (≈ 618 µM) | > 500 | 125 (≈ 309 µM) | > 500 | 4 (≈ 9.89 µM) | –
9 | C#CCN1C(=O)N(CC#C)C(C)(C)C1=O [Compound 11, 1,3-bis-(2-propynyl)-5,5-dimethylhydantoin, reference compound] | > 500 | > 500 | > 500 | > 500 | > 500 | > 500 | > 500 | –
10 | C#CCN1C(=O)NC(C)(C)C1=O [Compound 12, 3-(2-propynyl)-5,5-dimethylhydantoin, reference compound] | > 500 | > 500 | > 500 | > 500 | > 500 | > 500 | > 500 | –
11 | CC(C)(C#CI)N1CC(=O)N(c2cc(Cl)cc(Cl)c2)C1=O [Compound 13, 1-(1,1-dimethyl-3-iodo-2-propynyl)-3-(3,5-dichlorophenyl)hydantoin] | > 500 | > 500 | > 500 | > 500 | > 500 | > 500 | 8 (≈ 18.3 µM) | pest or weed control at 50 ppm [1]: 50%; pest or weed control at 200 ppm [1]: 75%; pest or weed control at 200 ppm (Phytophthora infestans; [5]): 70%; pest or weed control at 50 ppm (Phytophthora infestans): 0%; pest or weed control at 200 ppm (Phytophthora infestans; [6]): 50%; pest or weed control at 50 ppm (Piricularia oryzae): 50%; pest or weed control at 200 ppm (Piricularia oryzae): 50%; pest or weed control at 50 ppm [2]: 50%; pest or weed control at 200 ppm [2]: 75%; pest or weed control at 200 ppm [3]: 80%; pest or weed control at 50 ppm [4]: 50%; pest or weed control at 200 ppm [4]: 90%
12 | C#CCN1C(=O)N(Cc2ccccc2)C(C)(C)C1=O [Compound 14, 1-benzyl-3-(propyn-2-yl)-5,5-dimethylhydantoin, reference compound] | > 500 | > 500 | > 500 | > 500 | > 500 | > 500 | > 500 | –
13 | CC1(C)C(=O)N(CC#CI)C(=O)N1Cc1ccccc1 [Compound 14] | > 500 | 64 (≈ 167 µM) | 125 (≈ 327 µM) | 250 (≈ 654 µM) | > 500 | > 500 | 4 (≈ 10.5 µM) | –
14 | O=C1CNC(=O)N1CC#CI [Compound 15, 3-(3-iodo-2-propynyl)-hydantoin] | 64 (≈ 242 µM) | 125 (≈ 473 µM) | 64 (≈ 242 µM) | 64 (≈ 242 µM) | 250 (≈ 947 µM) | 500 (≈ 1890 µM) | 8 (≈ 30.3 µM) | –
